Assay results from US20080039438A1, “1B-Methylcarbapenem Derivative and Process for the Preparation Thereof” (Korea Institute of Science and Technology, priority 2004, published 2008).
Values after ≈ are worked out from the molar mass of the structure shown.

Legend:
Type in all cases: cell-based
Streptococcus pneumoniae = experiment: MIC against clinically isolated aerobic Gram-positive strains; details: 22 strains
[1] = tested on: Bacteroides thetaiotaomicron; experiment: MIC against clinically isolated anaerobic Gram-negative strains
Morganella morganii = experiment: MIC against clinically isolated aerobic Gram-negative strains; details: 15 strains
Haemophilus influenzae = experiment: as above; details: 24 strains
Enterococcus faecium = experiment: MIC against clinically isolated aerobic Gram-positive strains; details: clinically isolated Enterococcus faecium, 29 strains
Enterococcus faecalis = experiment: as above; details: 30 strains
Streptococcus agalactiae = experiment: as above; details: 15 strains
Proteus vulgaris = experiment: MIC against clinically isolated aerobic Gram-negative strains; details: 15 strains
Peptostreptococcus spp. = experiment: MIC against clinically isolated anaerobic Gram-positive strains; details: 27 strains
Klebsiella pneumoniae = experiment: MIC against clinically isolated aerobic Gram-negative strains; details: 30 strains
Enterobacter aerogenes = experiment: as above; details: 14 strains
Klebsiella oxytoca = experiment: as above; details: 15 strains
Pseudomonas aeruginosa = experiment: as above; details: 60 strains
Enterobacter cloacae = experiment: as above; details: 29 strains
Clostridium perfringens = experiment: microbe, parasite or virus in culture
Clostridium difficile = experiment: MIC against clinically isolated anaerobic Gram-positive strains; details: 15 strains
Method: The in vitro antibacterial activities of the sodium 3-carboxylate compound of the present invention prepared in the above Example were measured against standard strains (Table 1), clinically isolated aerobic Gram-positive strains (Table 2), clinically isolated aerobic Gram-negative strains (Table 3), clinically isolated anaerobic Gram-positive strains (Table 4) and clinically isolated anaerobic Gram-negative strains (Table 5) using Gram-positive bacteria such as Streptococcus and Staphylococcus, Gram-negative bacteria such as Escherichia, Salmonella, Krebsiella and Enterobacter. Imipenem (IPM), meropenem (MPM) and ertapenem (EPM) were used as control groups.
The results are shown in Tables 1 to 5, and MIC50 and MIC90 represent the concentrations at which the test strain's growth was inhibited to the extents of 50% and 90%, respectively.

Acinetobacter baumannii = experiment: MIC against clinically isolated aerobic Gram-negative strains; details: 30 strains
Proteus mirabilis = experiment: as above; details: 15 strains
Bacteroides spp. = experiment: MIC against clinically isolated anaerobic Gram-negative strains; details: 11 strains
Serratia marcescens = experiment: MIC against clinically isolated aerobic Gram-negative strains; details: 14 strains
[2] = tested on: Methicillin-sensitive Staphylococcus aureus; experiment: MIC against clinically isolated aerobic Gram-positive strains; details: 33 strains
Providentia sp. = experiment: MIC against clinically isolated aerobic Gram-negative strains; details: 13 strains
Escherichia coli = experiment: as above; details: 30 strains
Citrobacter freundii = experiment: as above; details: 14 strains
Streptococcus pyogenes = experiment: MIC against clinically isolated aerobic Gram-positive strains; details: 15 strains
Staphylococcus coagulase = experiment: as above; details: Staphylococcus
Bacteroides fragilis = experiment: MIC against clinically isolated anaerobic Gram-negative strains; details: 34 strains
Moraxella catarrhalis = experiment: MIC against clinically isolated aerobic Gram-negative strains; details: 24 strains

For C[C@@H](O)[C@H]1C(=O)N2C(C(=O)O)=C(S[C@@H]3CN[C@H](C(=O)Nc4cccc(C(=O)O)c4)C3)[C@H](C)[C@H]12 [EPM, ertapenem], the MIC50 (Streptococcus pneumoniae) was 0.5 µg/mL (≈ 1.05 µM), the MIC90 (Streptococcus pneumoniae) was 1 µg/mL (≈ 2.1 µM) and the “MIC Range” value (Streptococcus pneumoniae) was 0.008 to 1 µg/mL. For the same molecule, the MIC50 ([1]; Bacteroides thetaiotaomicron) was 2 µg/mL (≈ 4.21 µM), the MIC90 ([1]; Bacteroides thetaiotaomicron) was 2 µg/mL (≈ 4.21 µM) and the “MIC Range” value ([1]; clinically isolated anaerobic Bacteroides thetaiotaomicron, 15 strains) was 0.25 to 8 µg/mL. For the same molecule, the MIC50 (Morganella morganii) was 0.008 µg/mL (≈ 0.0168 µM), the MIC90 (Morganella morganii) was 0.03 µg/mL (≈ 0.0631 µM) and the “MIC Range” value (Morganella morganii) was 0.008 to 0.03 µg/mL. For the same molecule, the MIC50 (Haemophilus influenzae) was 0.12 µg/mL (≈ 0.252 µM), the MIC90 (Haemophilus influenzae) was 0.5 µg/mL (≈ 1.05 µM) and the “MIC Range” value (Haemophilus influenzae) was 0.12 to 1 µg/mL. For the same molecule, the “MIC Range” value (Enterococcus faecium) was 32 to 128 µg/mL, the MIC50 (Enterococcus faecium; read-out: MIC50) was 128 µg/mL (≈ 269 µM) and the MIC90 (Enterococcus faecium; read-out: MIC90) was 128 µg/mL (≈ 269 µM). For the same molecule, the MIC50 (Enterococcus faecalis) was 16 µg/mL (≈ 33.6 µM), the MIC90 (Enterococcus faecalis) was 32 µg/mL (≈ 67.3 µM) and the “MIC Range” value (Enterococcus faecalis) was 4 to 64 µg/mL. The MIC50 (Streptococcus agalactiae) was 0.06 µg/mL (≈ 0.126 µM), the MIC90 (Streptococcus agalactiae) was 0.06 µg/mL (≈ 0.126 µM) and the “MIC Range” value (Streptococcus agalactiae) was 0.03 to 0.06 µg/mL. For the same molecule, the MIC50 (Proteus vulgaris) was 0.015 µg/mL (≈ 0.0315 µM), the MIC90 (Proteus vulgaris) was 0.015 µg/mL (≈ 0.0315 µM) and the “MIC Range” value (Proteus vulgaris) was 0.008 to 0.03 µg/mL. The MIC50 (Peptostreptococcus spp.) was 0.12 µg/mL (≈ 0.252 µM), the MIC90 (Peptostreptococcus spp.) was 4 µg/mL (≈ 8.41 µM) and the “MIC Range” value (Peptostreptococcus spp.) was 0.06 to 4 µg/mL. For the same molecule, the MIC50 (Klebsiella pneumoniae) was 0.03 µg/mL (≈ 0.0631 µM), the MIC90 (Klebsiella pneumoniae) was 0.5 µg/mL (≈ 1.05 µM) and the “MIC Range” value (Klebsiella pneumoniae) was 0.008 to 1 µg/mL. For the same molecule, the “MIC Range” value (Enterobacter aerogenes) was 0.008 to 0.5 µg/mL, the MIC50 (Enterobacter aerogenes; Klebsiella aerogenes) was 0.06 µg/mL (≈ 0.126 µM) and the MIC90 (Enterobacter aerogenes; Klebsiella aerogenes) was 0.5 µg/mL (≈ 1.05 µM). For the same molecule, the MIC50 (Klebsiella oxytoca) was 0.008 µg/mL (≈ 0.0168 µM), the MIC90 (Klebsiella oxytoca) was 0.008 µg/mL (≈ 0.0168 µM) and the “MIC Range” value (Klebsiella oxytoca) was 0.008 to 0.25 µg/mL. For the same molecule, the MIC50 (Pseudomonas aeruginosa) was 32 µg/mL (≈ 67.3 µM), the MIC90 (Pseudomonas aeruginosa) was 128 µg/mL (≈ 269 µM) and the “MIC Range” value (Pseudomonas aeruginosa) was 1 to 128 µg/mL. For the same molecule, the MIC50 (Enterobacter cloacae) was 0.12 µg/mL (≈ 0.252 µM), the MIC90 (Enterobacter cloacae) was 2 µg/mL (≈ 4.21 µM) and the “MIC Range” value (Enterobacter cloacae) was 0.015 to 2 µg/mL. For the same molecule, the MIC50 (Clostridium perfringens; Clostridium perfringens) was 0.06 µg/mL (≈ 0.126 µM), the MIC90 (Clostridium perfringens; Clostridium perfringens) was 0.12 µg/mL (≈ 0.252 µM) and the “MIC Range” value (Clostridium perfringens; clinically isolated anaerobic Clostridium perfringens, 13 strains) was 0.06 to 0.12 µg/mL. For the same molecule, the “MIC Range” value (Clostridium difficile) was 4 to 8 µg/mL, the MIC50 (Clostridium difficile; Clostridioides difficile) was 4 µg/mL (≈ 8.41 µM) and the MIC90 (Clostridium difficile; Clostridioides difficile) was 8 µg/mL (≈ 16.8 µM). For the same molecule, the MIC50 (Acinetobacter baumannii) was 8 µg/mL (≈ 16.8 µM), the MIC90 (Acinetobacter baumannii) was 64 µg/mL (≈ 135 µM) and the “MIC Range” value (Acinetobacter baumannii) was 4 to 128 µg/mL. The MIC50 (Proteus mirabilis) was 0.008 µg/mL (≈ 0.0168 µM), the MIC90 (Proteus mirabilis) was 0.015 µg/mL (≈ 0.0315 µM) and the “MIC Range” value (Proteus mirabilis) was 0.008 to 0.015 µg/mL. The MIC50 (Bacteroides spp.) was 1 µg/mL (≈ 2.1 µM), the MIC90 (Bacteroides spp.) was 2 µg/mL (≈ 4.21 µM) and the “MIC Range” value (Bacteroides spp.) was 0.5 to 2 µg/mL. For the same molecule, the MIC50 (Serratia marcescens) was 0.06 µg/mL (≈ 0.126 µM), the MIC90 (Serratia marcescens) was 16 µg/mL (≈ 33.6 µM) and the “MIC Range” value (Serratia marcescens) was 0.015 to 16 µg/mL. The MIC50 [2] was 0.25 µg/mL (≈ 0.526 µM), the MIC90 [2] was 0.25 µg/mL (≈ 0.526 µM) and the “MIC Range” value [2] was 0.25 to 0.5 µg/mL. The MIC50 (Providentia sp.) was 0.03 µg/mL (≈ 0.0631 µM), the MIC90 (Providentia sp.) was 16 µg/mL (≈ 33.6 µM) and the “MIC Range” value (Providentia sp.) was 0.008 to 16 µg/mL. The MIC50 (Escherichia coli) was 0.008 µg/mL (≈ 0.0168 µM), the MIC90 (Escherichia coli) was 0.12 µg/mL (≈ 0.252 µM) and the “MIC Range” value (Escherichia coli) was 0.008 to 4 µg/mL. The MIC50 (Citrobacter freundii) was 0.008 µg/mL (≈ 0.0168 µM), the MIC90 (Citrobacter freundii) was 0.25 µg/mL (≈ 0.526 µM) and the “MIC Range” value (Citrobacter freundii) was 0.008 to 0.5 µg/mL. For the same molecule, the MIC50 (Streptococcus pyogenes) was 0.15 µg/mL (≈ 0.315 µM), the MIC90 (Streptococcus pyogenes) was 0.15 µg/mL (≈ 0.315 µM) and the “MIC Range” value (Streptococcus pyogenes) was 0.008 to 0.015 µg/mL. It also gave an MIC50 (Staphylococcus coagulase) of 0.25 µg/mL (≈ 0.526 µM), an MIC90 (Staphylococcus coagulase) of 0.5 µg/mL (≈ 1.05 µM) and an MIC50 (Bacteroides fragilis) of 0.25 µg/mL (≈ 0.526 µM). For the same molecule, the MIC90 (Bacteroides fragilis) was 1 µg/mL (≈ 2.1 µM), the “MIC Range” value (Bacteroides fragilis) was 0.12 to 4 µg/mL and the MIC50 (Moraxella catarrhalis) was 0.015 µg/mL (≈ 0.0315 µM). The MIC90 (Moraxella catarrhalis) was 0.03 µg/mL (≈ 0.0631 µM) and the “MIC Range” value (Moraxella catarrhalis) was 0.008 to 0.12 µg/mL.
